Data set [1] has as its system isolated rabbit urinary bladder. The experiment in a line: Relaxation effect on potassium-induced contraction of isolated rabbit urinary bladder. The format is cell-based. The settings on record: Oryctolagus cuniculus; 50% relaxation concentration; high-K+ (30 mM) pre-contracted rabbit bladder strips; relaxation as percentage of the maximum produced by 0.1 mM papaverine; read-out: EC50 value range. In short, it runs like this: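 Mucosa-free longitudinal bladder strips from male NZW rabbits, held at 37 °C in Krebs solution gassed with 95% O2/5% CO2, were precontracted with 30 mM K+. Compounds were added cumulatively (10^−8–10^−4 M), with isometric relaxation expressed relative to 0.1 mM papaverine maximum. EC50 was derived and reported as rank ranges.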

Data set [2] concerns rhythmic bladder contractions induced by substance P. The experiment in a line: Inhibitory effect on the rhythmic bladder contractions induced by substance P in anesthetized rats. It is filed as in vivo, rat. The settings on record: time during which frequency of rhythmic contraction was completely inhibited, 0.25 mg/kg of the compound, substance P infusion. An outline of the steps:
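Urethane-anesthetized female Sprague-Dawley rats with rhythmic bladder contractions driven by i.v. substance P (0.33 μg/kg/min). Compound given i.v. in saline/0.5% Tween 80 once contractions stable 15 min; intravesical pressure monitored, duration of 100% inhibition ranked A ≥20, B ≥10, C <10 min.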

Where a name gives a salt, the structure may show the parent alone.

With `CCc1[nH]c(-c2ccc(C)nc2)nc1-c1cccnc1.Cl.Cl.Cl`, the melting point – broadly, the temperature, or range, at which the solid turns liquid – was 270 to 273 °C (dec.). On to `Cl.O=C(O)Cc1nc(-c2ccc(Cl)s2)oc1-c1cccnc1`, for which the melting point was 234 to 238 °C (dec.). Take `CCCc1nc(-c2ccc(N(C)C)cc2)[nH]c1-c1cccs1` (as salt: HCl) [Preparation example 2]: the melting point was 170 to 172 °C. In the case of `CCCc1nc(-c2ccc(NC)cc2)[nH]c1-c1cccs1` (as salt: HCl) [Preparation example 3], the melting point was in the range of 175 to 180 °C. In turn, `CCCc1nc(C2CCC(=O)N2)[nH]c1-c1cccs1` (stereo not drawn) (as salt: HCl) [Preparation example 4] yielded a melting point of 234 to 237 °C. `CCCc1nc(-c2ccncc2)[nH]c1-c1cccs1` (as salt: HCl) [Preparation example 6] yielded a melting point of 275 to 280 °C.

On to `CCCc1nc(-c2cncc(C)c2)[nH]c1-c1cccs1` (as salt: HCl) [Preparation example 7], for which the melting point was 183 to 185 °C. `CCCc1nc(-c2ccc(C#N)cc2)[nH]c1-c1cccs1` (as salt: HCl) [Preparation example 8] yielded a melting point of 251 to 254 °C. As for `CCCc1nc(-c2ccc([N+](=O)[O-])cc2)[nH]c1-c1cccs1` (as salt: HCl) [Preparation example 9], the melting point fell in the range of 278 to 281 °C.

Compound `CCc1nc(-c2ccccc2Cl)[nH]c1-c1cccnc1` (as salt: HCl) [Preparation example 12] registered a melting point of 221 to 223 °C. `CCc1nc(-c2cccc(Cl)c2)[nH]c1-c1cccnc1` (as salt: HCl) [Preparation example 13] displayed a melting point of 223 to 224 °C. In turn, `CCc1nc(-c2ccccc2C(N)=O)[nH]c1-c1cccnc1` (as salt: HCl) [Preparation example 18] registered a melting point of 250 to 253 °C. In turn, `CCc1nc(-c2csc(Br)c2)[nH]c1-c1cccnc1` (as salt: HCl) [Preparation example 19] returned a melting point of 214 to 216 °C. Same read-out and setting: the value for `CCc1nc(-c2cccs2)[nH]c1-c1cccnc1` (as salt: HCl) [Preparation example 20] was 215 to 217 °C; that for `Fc1ccc(-c2ncc(-c3cccnc3)[nH]2)cc1` (as salt: HCl) [Preparation example 22] was 192 to 195 °C. In turn, `N#Cc1ccc(-c2ncc(-c3cccnc3)[nH]2)cc1` (as salt: HCl) [Preparation example 23] came in with a melting point of 325 to 328 °C. The compound `Cc1ccc(-c2ncc(-c3cccnc3)[nH]2)cn1` (as salt: HCl) [Preparation example 26] showed a melting point of 269 to 273 °C. As to `CCc1nc(-c2ccc(C#N)cc2)[nH]c1-c1ccccc1` (as salt: HCl) [Preparation example 27], the melting point is 285 to 288 °C. Same read-out and setting: with `CCc1nc(-c2ccc(C)nc2)[nH]c1-c1ccccc1` (as salt: HCl) [Preparation example 28] the figure was 248 to 251 °C. For the compound `CCCc1nc(-c2cccc(Cl)c2)[nH]c1-c1ccccc1` (as salt: HCl) [Preparation example 29], the melting point is 202 to 204 °C. Same read-out and setting: with `CCCc1nc(-c2cccc(F)c2)[nH]c1-c1ccccc1` (as salt: HCl) [Preparation example 30] the figure was 192 to 193 °C; with `CCCc1nc(-c2ccc(C#N)cc2)[nH]c1-c1ccccc1` (as salt: HCl) [Preparation example 31], 258 to 260 °C. Take `CCCc1nc(-c2ccc3ccccc3c2)[nH]c1-c1ccccc1` (as salt: HCl) [Preparation example 32]: the melting point lay within 189 to 190 °C. On to `CCCc1nc(-c2ccsc2)[nH]c1-c1ccccc1` (as salt: HCl) [Preparation example 33], for which the melting point was in the range of 215 to 217 °C. Still for that read-out and setting: the value for `CCCc1nc(-c2csc(Cl)c2)[nH]c1-c1ccccc1` (as salt: HCl) [Preparation example 34] was 194 to 196 °C. Same read-out and setting: with `CCCc1nc(-c2ccc[nH]2)[nH]c1-c1ccccc1` (as salt: HCl) [Preparation example 35] the figure was 220 to 222 °C; with `CCCc1nc(-c2cc3ccccc3o2)[nH]c1-c1ccccc1` (as salt: HCl) [Preparation example 38], 185 to 188 °C; with `CCCc1nc(-c2ccccc2[N+](=O)[O-])[nH]c1-c1ccccc1` (as salt: HCl) [Preparation example 39], 233 to 236 °C. Take `CCCc1nc(-c2cc(Cl)cs2)[nH]c1-c1ccccc1` (as salt: HCl) [Preparation example 40]: the melting point is 188 to 190 °C.

Take `Fc1cccc(-c2ncc(-c3ccccc3)[nH]2)c1` (as salt: HCl) [Preparation example 41]: the melting point lay in the range of 250 to 255 °C. In turn, `N#Cc1ccc(-c2ncc(-c3ccccc3)[nH]2)cc1` (as salt: HCl) [Preparation example 42] yielded a melting point of over 300 °C.

The compound `CCc1nc(-c2ccc(F)cc2)[nH]c1-c1ccc(C)nc1` (as salt: HCl) [Preparation example 47] returned a melting point of 260 to 262 °C.

Compound `CCc1nc(-c2ccc(F)cc2)[nH]c1-c1cnccn1` (as salt: HCl) [Preparation example 49] displayed a melting point of 241 to 243 °C. Consider `CCc1nc(-c2ccc(F)cc2)[nH]c1-c1ncccn1` (as salt: HCl) [Preparation example 50], for which the melting point lay within 190 to 192 °C. Consider `CCc1nc(-c2ccc(C#N)s2)[nH]c1-c1cccnc1` [Preparation example 16], for which the EC50 (in general, the concentration needed to bring the measured effect to its halfway point) in data set [1] lay within 1 to 3 µM. In addition, the “100% inhibition time range” value in data set [2] is “B (A≧20>B≧10>C (minute))”.

Consider `Clc1ccc(-c2ncc(-c3cccnc3)[nH]2)s1` [Preparation example 25], for which the EC50 in data set [1] was at most 0.5 µM. In data set [2], the “100% inhibition time range” value is on record as “B (A≧20>B≧10>C (minute))”. With `CCCc1nc(-c2cccc(F)c2)[nH]c1-c1ccccc1` [Preparation example 30], the EC50 in data set [1] was 1 to 3 µM. Further, the “100% inhibition time range” value in data set [2] is reported as “B (A≧20>B≧10>C (minute))”. For `CCCc1nc(-c2csc(Cl)c2)[nH]c1-c1ccccc1` [Preparation example 34], in that order: 1 to 3 µM and “A (A≧20>B≧10>C (minute))”. On the same counts, the results for `CCc1nc(-c2ccc(F)cc2)[nH]c1-c1ncccn1` [Preparation example 50] are 1 to 3 µM and “C (A≧20>B≧10>C (minute))”. With `CCc1nc(-c2ccc(C#N)cc2)[nH]c1-c1cccnc1` [Preparation example 53], in data set [1], the concentration giving a half-maximal response (EC50) was 0.5 to 1 µM. The “100% inhibition time range” value in data set [2] was “C (A≧20>B≧10>C (minute))”. Regarding `Cc1nc(-c2csc(Cl)c2)[nH]c1-c1cccnc1` [Preparation example 54], the EC50 in data set [1] is 1 to 3 µM. For the same compound, the “100% inhibition time range” value in data set [2] is “B (A≧20>B≧10>C (minute))”. Turning to `CCc1nc(-c2csc(Cl)c2)[nH]c1-c1cccnc1` [Preparation example 55], the EC50 in data set [1] lay within 1 to 3 µM. Besides, the “100% inhibition time range” value in data set [2] is reported as “B (A≧20>B≧10>C (minute))”.

`CCc1nc(-c2ccc(Cl)cc2)[nH]c1-c1cccnc1` [Preparation example 56]: in data set [1], the EC50 fell in the range of 0.5 to 1 µM. In addition, the “100% inhibition time range” value in data set [2] is “B (A≧20>B≧10>C (minute))”. For the compound `CCc1nc(-c2ccc(F)cc2)[nH]c1-c1cncs1` [Preparation example 86], the EC50 in data set [1] lay in the range of 0.5 to 1 µM. The “100% inhibition time range” value in data set [2] was “B (A≧20>B≧10>C (minute))”. For `CCCc1nc(-c2ccc(F)cc2)[nH]c1-c1ccc(F)cc1` [Preparation example 87], in that order: 1 to 3 µM and “B (A≧20>B≧10>C (minute))”. As to `CCCc1nc(-c2ccc(F)cc2)[nH]c1-c1ccccc1` [Preparation example 88], in data set [1], the EC50 was in the range of 1 to 3 µM. Besides, in data set [2], the “100% inhibition time range” value is reported as “B (A≧20>B≧10>C (minute))”. On to `CCCc1nc(-c2ccc(F)cc2)[nH]c1-c1ccc(N(C)C)cc1` [Preparation example 90], for which, in data set [1], the EC50 is 1 to 3 µM. For the same compound, the “100% inhibition time range” value in data set [2] is “B (A≧20>B≧10>C (minute))”. For the compound `CCCc1nc(-c2ccc(F)cc2)[nH]c1-c1cccc(F)c1` [Preparation example 99], in data set [1], the concentration giving a half-maximal response (EC50) lay within 0.5 to 1 µM. The “100% inhibition time range” value in data set [2] is recorded as “B (A≧20>B≧10>C (minute))”. On to `CCc1c(-c2cccnc2)nc(-c2ccc(F)cc2)n1CC` [Preparation example 104], for which the EC50 in data set [1] lay within 0.5 to 1 µM. Moreover, the “100% inhibition time range” value in data set [2] is recorded as “A (A≧20>B≧10>C (minute))”.

Take `CN(C)c1[nH]c(-c2ccc(F)cc2)nc1-c1ccccc1.Cl` [Preparation example 108, 5-dimethylamino-2-(4-fluorophenyl)-4-phenylimidazole hydrochloride]: the EC50 in data set [1] lay within 1 to 3 µM. In addition, the “100% inhibition time range” value in data set [2] is “B (A≧20>B≧10>C (minute))”.

On to `CSCc1nc(-c2ccc(C#N)cc2)[nH]c1-c1ccccc1` [Preparation example 132], for which, in data set [1], the EC50 was 0.5 to 1 µM. Moreover, the “100% inhibition time range” value in data set [2] is “B (A≧20>B≧10>C (minute))”.

On to `C[S+]([O-])Cc1nc(-c2cccc(F)c2)[nH]c1-c1ccccc1` (stereo not drawn) [Preparation example 136], for which the EC50 in data set [1] is 0.5 to 1 µM. Further, the “100% inhibition time range” value in data set [2] is “C (A≧20>B≧10>C (minute))”. For the compound `C[S+]([O-])Cc1[nH]c(-c2ccc(F)cc2)nc1-c1ccccc1` (stereo not drawn) [Preparation example 639], in data set [1], the EC50 fell in the range of 1 to 3 µM. For the same compound, in data set [2], the “100% inhibition time range” value was “C (A≧20>B≧10>C (minute))”.
